Data on 86 molecules can be found in a melting point compilation (Tetko et al.; mined from patent text by program, amines drawn as free bases though some values may be those of a salt).

Each structure is given as a SMILES string.

What is called melting point is the temperature, or range, at which the solid turns liquid.

Take `CC(=O)Oc1c(C)c(C)c2c(c1C)CCC(C)(C(=O)OCCNCc1cc(N3CCCC3)nc(N3CCCC3)n1)O2` (stereo unspecified): the melting point fell in the range of 69.5 to 76 °C.

The molecule `CC(C)C[C@H](NC(=O)OCc1ccccc1Cl)C(=O)N[C@@H](Cc1ccccc1)C(=O)CSCc1ccco1` yielded a melting point of 80 to 85 °C.

On to `CCOc1ccc(-c2nc(-c3cc(C=CC(=O)O)c(O)c(C(=O)O)c3)cs2)cc1OCC`, for which the melting point lay in the range of 260 to 261 °C.

`NC(=O)C1CCN(c2cc(-c3ccccc3)nc3ccc(F)cc23)CC1`: the melting point lay in the range of 230 to 233 °C.

The molecule `Cc1cccc(Cl)c1C1N=C(N(C)C)Cc2ccccc21` (stereo unspecified) showed a melting point of 153 to 154 °C.

The molecule `Cc1nc(C)c(-c2ccnc(Nc3ccc(C)c(S(=O)(=O)N4CCOCC4)c3)n2)s1` showed a melting point of 81 to 83 °C.

Take `O=C(O)Cc1c(C(=O)C2CCCCC2)[nH]c2cc(Cl)ccc12`: the melting point was in the range of 206 to 209 °C.

The molecule `CC1CCN(CCNc2nn3cnnc3c3c2CCCC3)CC1` had a melting point of 180 to 181 °C.

With `CCCCNC(=O)N(c1ccccc1)c1ccccc1`, the melting point came out at 92 °C.

`CC(=O)Oc1cnc2c(OC(C)=O)cccc2c1` gave a melting point of 101 to 102 °C.

For `CC1=C(C(=O)Nc2ccc(Cl)c(C(=O)OC(C)C)c2)SCCS1`, the melting point lay within 122 to 124 °C.

Molecule `CCCn1c(COCC)nc2c(N)nc3ccc(OCCCCCCNC(=O)NC(C)C)cc3c21` returned a melting point of 167 to 169 °C.

The molecule `COc1cc(-c2cnc3[nH]cc(C(=O)C4(C)CCCC(C)C4)c3n2)cc(OC)c1OC` (stereo unspecified) returned a melting point of 229 to 231 °C.

In turn, `C=C(c1cc(C(C)(C)C)cc2c1CCC2(C)C)c1sccc1C(=O)O` displayed a melting point of 148 to 150 °C.

Consider `COc1ccc(CNCC(O)c2ccccc2)cc1OC` (stereo unspecified), for which the melting point was in the range of 93 to 94 °C.

On to `O=[N+]([O-])c1cc(F)ccc1S(=O)(=O)c1ccccc1`, for which the melting point was in the range of 127 to 129 °C.

Consider `O=C(CN1CCCC1)Nc1ccc2c(c1)C(=O)c1cc(NC(=O)CN3CCCC3)ccc1C2=O`, for which the melting point is 201 °C.

`NNC(=S)c1ccccc1`: the melting point fell in the range of 66 to 68 °C.

Regarding `Cc1cccc(NC(=O)C2=C(O)c3ccc4ccccc4c3S(=O)(=O)N2C)c1`, the melting point lay in the range of 240 to 242 °C.

On to `O=C(NN=CC(F)(F)C(F)(F)F)c1nc(Oc2cccc(C(F)(F)F)c2)ccc1Cl`, for which the melting point lay within 130 to 131 °C.

Regarding `C=CCOC(=O)c1c(C)nc2c(cnn2Cc2ccccc2)c1N`, the melting point worked out at 108 °C.

`CN1CCN(C(=O)COc2cccc(-n3nc(-c4ccc(F)cc4)c4cccnc43)c2)CC1` yielded a melting point of 132 to 135 °C.

`CC(C)(CC1CCCC1)NC(=O)CN1C(=O)c2ccccc2C1=O` displayed a melting point of 159 to 160 °C.

`N#Cc1cnc2c(oc3ccccc32)c1Nc1ccc(Cl)cc1F` registered a melting point of 259 to 261 °C.

The molecule `Cn1cc(-c2cccc(Cl)c2)c(=S)c(-c2cccc(Cl)c2)c1` registered a melting point of 210 to 212 °C.

On to `O=C(CN1CCCCC1=O)N1CCC(C2c3ncc(Br)cc3CCc3cc(Cl)cc(Br)c32)CC1` (single isomer, unassigned; (+)), for which the melting point fell in the range of 138 to 139 °C.

Molecule `O=C(Nc1ccccc1)Nc1nc(=O)n(S(=O)(=O)c2ccccc2)cc1F` displayed a melting point of 210 to 214 °C.

Take `CCOC(=O)c1cn(C2COC2)c2cc(F)c(F)c(OCc3ccccc3)c2c1=O`: the melting point was in the range of 220 to 222 °C.

As for `O=C(O)C1CCCCCCCSC[C@@H](C(=O)O)NC1=O` (stereo partly specified), the melting point was in the range of 167 to 170 °C.

In turn, `O=C(C=CCN1CCOCC1)Nc1cc2c(Nc3ccc(F)c(Cl)c3)ncnc2cc1OC1CCCC1` came in with a melting point of 143 °C.

On to `CCOC(=O)CCCCCCCn1c(C)nc(-c2ccccc2)c1-c1ccccc1`, for which the melting point was in the range of 135 to 136 °C.

Consider `CC(C)(C)OC(=O)NCCc1c[nH]c2ccc(Oc3ccccc3)c(Cl)c12`, for which the melting point fell in the range of 163 to 166 °C.

Consider `CCCC1=C(C(=O)OCC)C(c2ccccc2OCC)c2c[nH]nc2N1` (stereo unspecified), for which the melting point worked out at 203 °C.

The molecule `Cc1nc(-n2ccn(CCc3ccc(F)cc3)c2=O)sc1C(=O)NCc1cccnc1` showed a melting point of 160 to 162 °C.

`COCC(=O)c1cnc2c(OC)cccc2c1Cl` displayed a melting point of 96 to 98 °C.

On to `CC(C)N(CCC(CCN(C(C)C)C(C)C)(C(N)=O)c1ccccc1)C(C)C`, for which the melting point was in the range of 102 to 103 °C.

As for `CCn1cc(C(=O)O)c(=O)c2cc(F)c(-c3ccncc3)nc21`, the melting point was in the range of 286 to 288 °C.

The molecule `O=C(C=Cc1cccc(Oc2ccccc2)c1)NCCCCCC(=O)NO` displayed a melting point of 113 to 115 °C.

In turn, `O=C(NC1CCC(OC(=O)N2CCC3(CCCC3)CC2)CC1)C1CCN(C(=O)Oc2ccc(Oc3ccccc3)cc2)CC1` (stereo unspecified) had a melting point of 230 to 231 °C.

In turn, `O=C(Nc1cccc(Oc2ccc3nc(NC(=O)C4CC4)cn3n2)c1)c1ccccc1` displayed a melting point of 265 °C.

In turn, `O=C1c2ccc(O)cc2C(=O)N1c1ccc(O)cc1` had a melting point of 302 to 304 °C.

With `Cc1nc2ccccn2c1CN1CCC(Nc2nc3ccccc3n2Cc2ccc(F)cc2)CC1`, the melting point worked out at 198 °C.

`O=C(O)c1cn(-c2nnc(C(F)(F)F)s2)c2nc(Cl)c(F)cc2c1=O` showed a melting point of 232 to 237 °C.

`Cc1c(OC(=O)c2ccccc2)ccc2c1OC(C)(C)CC2=O`: the melting point was determined as 113 °C.

With `CCOC(=O)C(C(=O)OCC)N(Cc1ccccc1)Cc1ccc(OC)cc1OC`, the melting point lay in the range of 62 to 63 °C.

Take `COc1ccnc(CS(=O)c2nc3c(C(F)(F)F)cccc3[nH]2)c1` (stereo unspecified): the melting point lay within 150 to 151 °C.

`CCCCc1ncc(CC(NC(=O)CCc2ccccc2)C(=O)O)n1Cc1ccccc1Cl` (stereo unspecified) gave a melting point of 194 to 196 °C.

Consider `N#CC(c1ccncc1)c1nnc(Nc2ccc3ncsc3c2)c2ccccc12` (stereo unspecified), for which the melting point fell in the range of 163 to 164 °C.

In turn, `CS(=O)(=O)c1cnc(Cl)c(Cl)c1` yielded a melting point of 129 to 130 °C.

Take `O=C(N[C@@H]1CCC[C@H]1O)C(O)=CC(=O)c1cc(Cc2ccc(F)cc2)cn(Cc2ccccc2F)c1=O`: the melting point lay within 67 to 69 °C.

For `CCOC(=O)OCCn1nc(-c2cc(C(C)(C)C)c(O)c(C(C)(C)C)c2)c2ccc(C)nc21`, the melting point is 145 to 146 °C.

As for `COc1nc2cc(Cl)c(Cl)cc2nc1N1CCN(C)CC1`, the melting point is 92.6 to 99 °C.

As to `C[Si](C)(C)C#Cc1ccc2c(c1)C(c1ccccc1F)=NCc1c(C(=O)OCC(F)(F)F)ncn1-2`, the melting point lay in the range of 220 to 221 °C.

Molecule `CCOP(C)(=O)CC(CC(C)C)NS(=O)(=O)c1ccc(C)cc1` (stereo unspecified) displayed a melting point of 96 to 105 °C.

The molecule `CCCc1nc2c(N)nc3c(c2n1CCCCCC(=O)N1CCOCC1)CCCC3` showed a melting point of 162 to 163 °C.

With `O=C(c1ccc(Cl)c([N+](=O)[O-])c1)c1cc2ccccc2o1`, the melting point worked out at 132 °C.

Take `CCCCCCCc1noc(-c2ncn3c2CN(C)C(=O)c2c(Cl)cccc2-3)n1`: the melting point was in the range of 108 to 110 °C.

As to `CC1(C)C=C(C(=O)NC2COC(C)(C)OCC2O)C(C)(C)N1` (stereo unspecified), the melting point lay in the range of 125 to 127 °C.

The molecule `CCCCCCCCCC[C@@]1(C)OO[C@@H]2C[C@H]1CC(=O)[C@@H]2C` showed a melting point of 40 °C.

In turn, `Cc1ccc(-c2c(-c3ccncc3)nc(-c3c(Cl)cccc3Cl)n2C)cc1` registered a melting point of 214 to 217 °C.

`Cc1cc(NS(=O)(=O)c2ccc(F)cc2)cc(C)c1S(=O)(=O)C[N+](=O)[O-]` yielded a melting point of 152 to 154 °C.

For `Nc1cccc2c1-c1nc3ccccc3cc1CC2`, the melting point was in the range of 138 to 140 °C.

Take `COc1cc(OC)nc(Oc2cccc3c2C(=O)OC3C)n1` (stereo unspecified): the melting point lay in the range of 190 to 191 °C.

Molecule `CCc1c(C(=O)O)nn(-c2ccc(Cl)cc2Cl)c1-c1ccc(Cl)cc1` yielded a melting point of 215 °C.

As for `CCCNC(=S)n1nc(Oc2c(Cl)cc(C(F)(F)F)cc2Cl)cc1C`, the melting point lay within 71 to 73 °C.

The molecule `Nc1ncnc2sc(Cc3ccncc3)c(-c3ccc(NC(=O)Nc4cccc(C(F)(F)F)c4)cc3)c12` yielded a melting point of 162 to 166 °C.

As for `CC(C)SC1=C(Cl)CSS1=O` (stereo unspecified), the melting point stood at 60 °C.

`CCc1cc(-c2ccc(Cl)cc2)nc2c(I)cnn12` showed a melting point of 150 to 152 °C.

On to `N#CC1(N)CC2(OC(c3ccccc3)C(c3ccccc3)O2)C2C1C2(F)C(N)=O` (stereo unspecified), for which the melting point was 197 °C.

`CC1(c2ccc(I)cc2)CO1` (stereo unspecified) showed a melting point of 44 to 45 °C.

In the case of `CCCc1c(C#N)c(C(F)F)nc(C(F)(F)F)c1C(=O)OCC`, the melting point lay within 40 to 41 °C.

Regarding `CCCCc1ncc(/C=C(\Cc2cccs2)C(=O)O)n1CCc1ccc(CC(=O)O)cc1`, the melting point lay in the range of 169 to 171 °C.

`O=C(Nc1ccc(F)cc1)c1ccccc1-c1cccc(F)c1`: the melting point lay in the range of 147 to 148 °C.

In turn, `COc1cc(OC)c2c(=O)[nH]c(-c3cccc(-c4ccc(C(=O)N(C)C)cc4)n3)nc2c1` displayed a melting point of 217 to 219 °C.

`CC(C)(C)c1nc2c(Cl)ccc(C(=O)O)c2o1` returned a melting point of 209 to 210 °C.

`CC(C)NC(=O)N1CCC(Cc2ccc(NC3=NCCN3)cc2)CC1` displayed a melting point of 191 to 192 °C.

As to `COc1ccc2cc(-c3ccc(OCC(O)CNC(C)(C)C)cc3)n(C)c(=O)c2c1` (stereo unspecified), the melting point lay in the range of 130 to 131 °C.

`CC(C)(C)C(O)Cn1ccnc1` (stereo unspecified) returned a melting point of 239 to 241 °C.

`CC(=O)N[C@@H](CSC(=O)c1ccccc1)C(=O)NCCSC(=O)C(C)(C)C` returned a melting point of 133 to 134 °C.

On to `CCOC(=O)C1=C(C)NN=C(CC)C1c1cccc(C#N)c1` (stereo unspecified), for which the melting point was found to be 91 °C.

Molecule `Fc1ccc(-c2cn(-c3ccncc3)c3ccccc23)cc1` registered a melting point of 115 to 118 °C.

In turn, `O=C1c2ccccc2C(=O)N1CCCCOc1cccc2c1SCCC2` showed a melting point of 116 °C.

As for `COc1ccc(CCN2CCC(N3Cc4cc(Cl)c(S(N)(=O)=O)cc4C3=O)CC2)cc1`, the melting point fell in the range of 125 to 135 °C.

In turn, `COc1c(C)c2c(c(O)c1CC=C(C)CC(C)C(=O)O)C(=O)OC2` (stereo unspecified) showed a melting point of 122 to 123 °C.

In the case of `O=C(O)[C@@H](CCN1C(=O)c2ccccc2C1=O)Oc1c(Br)cc(-c2c3ccccc3cc3sc4ccccc4c23)cc1Br`, the melting point fell in the range of 222 to 223 °C.

For the molecule `CC(C)Cn1c(CN2CCCS2(=O)=O)nc2c(N)nc3c(c21)CCCC3`, the melting point was in the range of 200 to 203 °C.
